Experimental data reported in patent US12479803B2, “Antimalarial compounds” (UNIVERSITY OF CENTRAL FLORIDA RESEARCH FOUNDATION, INC., priority 2019, dated 2025).
Where “and” joins values, the source holds several entries; their conditions need not be identical. Equal values may be shown once. Read-outs that look alike come from different tables or passages of the source.

System: CQ-resistant (Dd2) strain of P. falciparum
Experiment: In vitro antiplasmodial activity, SYBR Green I fluorescence assay, Dd2 strain
Assay type: cell-based, Plasmodium falciparum
Procedure: A set of 104 new styrylquinoline derivatives were synthesized and investigated for in vitro their antimalarial activity. To test antimalarial activities, different dilutions of compounds were added to P. falciparum culture. Following 72 h incubation at 37° C. in an atmosphere containing 5% CO2, the inhibitory property of the compounds were determined by SYBR Green I fluorescence assay. Meanwhile, SARs studies were conducted.
The SAR studies were focused on improving the in vitro activity of 2-arylvinylquinolines against the CQ-resistant Pf Dd2 strain.

[1] = CQ-resistant (Dd2) strain, 72 h incubation, read-out: EC50 (nmol)

| SMILES | EC50 [1] [nM] | further results |
| --- | --- | --- |
| CN(C)CCNc1cc(/C=C/c2ccco2)nc2ccc(F)cc12 [Compound 44] |  | EC50 (Dd2 strain, read-out: EC50): 82.6 ± 9.4 nM |
| CN(C)CCNc1cc(/C=C/c2cccnc2)nc2ccc(Cl)cc12 [Compound 52] | 33.6 ± 5.8 |  |
| COc1ccc2nc(/C=C/c3cc(NCCN(C)C)c4cc(Cl)ccc4n3)ccc2c1 [Compound 55] |  | EC50 (Dd2 strain, read-out: EC50): 281 ± 40.3 nM |
| COc1cc(/C=C/c2cc(NCCN(C)C)c3cc(Cl)ccc3n2)cc(OC)c1OC [Compound 27] | 44.4 ± 3.6 |  |
| CN(C)CCNc1cc(/C=C/c2cccs2)nc2ccc(Cl)cc12 [Compound 48] | 29.7 ± 4.6 |  |
| Fc1cnccc1/C=C/c1cc(NCCCCN2CCOCC2)c2cc(Cl)ccc2n1 [Compound 109] |  | EC50 (Dd2 strain, read-out: EC50): 79.6 ± 11.8 nM |
| Clc1ccc2nc(-c3ccccc3)cc(NCCCCN3CCOCC3)c2c1 [Compound 119] | 423 ± 62.7 |  |
| Fc1ccc(/C=C/c2cc(N3CCCC3)c3cc(Cl)ccc3n2)cc1 [Compound 65] | 428 ± 15 |  |
| Clc1ccc2nc(/C=C/c3ccncc3)cc(Nc3ccc(N4CCCCC4)cc3)c2c1 [Compound 70] | 793 ± 81.3 |  |
| Fc1ccc(/C=C/c2cc(NCCCCN3CCOCC3)c3cc(Cl)ccc3n2)nc1 [Compound 111] | 73.1 ± 11.9 |  |
| Fc1ccc(/C=C/c2cc(Nc3ccc(N4CCCCC4)cc3)c3cc(Cl)ccc3n2)cc1 [Compound 69] | 667 ± 117 |  |
| COc1ccc(/C=C/c2cc(NCCN(C)C)c3cc(OC)ccc3n2)cc1 [Compound 12] | 43.6 ± 2 |  |
| COc1ccc(/C=C/c2cc(NCCN(C)C)c3cc(F)ccc3n2)cc1 [Compound 19] | 37.8 ± 8.7 |  |
| CN(C)CCNc1cc(/C=C/c2ccc([N+](=O)[O-])cc2)nc2ccccc12 [Compound 33] | 47.9 ± 9.5 |  |
| CN(C)CCNc1cc(/C=C/c2ccc(F)cc2)nc2ccccc12 [Compound 34] | 25.5 ± 7.1 |  |
| CN(C)CCCCNc1cc(/C=C/c2ccccc2)nc2ccc(Cl)cc12 [Compound 35] | 68 ± 9 |  |
| CN(C)CCCCNc1cc(/C=C/c2ccc([N+](=O)[O-])cc2)nc2ccc(Cl)cc12 [Compound 36] | 52.5 ± 2 |  |
| Cc1cc(NCCCN(C)C)c2cc(Cl)ccc2n1 [Compound 6e] | 1240 ± 139 | EC50 (Dd2 strain): inactive |
| Clc1ccc2nc(/C=C/c3ccncc3)cc(N3CCN(c4ccccn4)CC3)c2c1 [Compound 68] | 2570 ± 610 |  |
| Fc1ccc(/C=C/c2cc(NCCCN3CCOCC3)c3cc(Cl)ccc3n2)cc1 [Compound 90] | 40.8 ± 5.6 |  |
| COc1ccc(/C=C/c2cc(NCCN(C)C)c3cc(Cl)ccc3n2)cc1OC [Compound 26] | 38.9 ± 7.8 |  |

| SMILES | EC50 [1] [nM] | further results |
| --- | --- | --- |
| Fc1cc(F)c(F)c(/C=C/c2cc(NCCCCN3CCOCC3)c3cc(Cl)ccc3n2)c1 [Compound 106] | 588 ± 256 |  |
| Clc1ccc2nc(/C=C/c3ccncc3)cc(NCCN3CCOCC3)c2c1 [Compound 82] | 137 ± 14.6 |  |
| CN1CCN(CCNc2cc(/C=C/c3ccncc3)nc3ccc(Cl)cc23)CC1 [Compound 87] | 53.3 ± 8.5 |  |
| CN(C)CCNc1cc(/C=C/c2ccc([N+](=O)[O-])cc2)nc2ccc(Cl)cc12 [Compound 23] | 28.7 ± 3.8 |  |
| Fc1cc(/C=C/c2cc(NCCCCN3CCOCC3)c3cc(Cl)ccc3n2)cc(F)c1F [Compound 108] | 130 ± 34.9 |  |
| COc1ccc2nc(/C=C/c3ccc([N+](=O)[O-])cc3)cc(NCCN(C)C)c2c1 [Compound 9] |  | EC50 (Dd2 strain, read-out: EC50): 28.6 ± 0.9 nM |
| Clc1ccc2nc(/C=C/c3ccncc3)cc(N3CCOCC3)c2c1 [Compound 63] | 3590 ± 870 |  |
| Fc1cc(F)cc(/C=C/c2cc(NCCCCN3CCOCC3)c3cc(Cl)ccc3n2)c1 [Compound 103] | 185 ± 34.1 |  |
| FC(F)(F)c1cccc(/C=C/c2cc(NCCCCN3CCOCC3)c3cc(Cl)ccc3n2)c1 [Compound 100] | 33.9 ± 1.4 |  |
| CN(C)CCNc1cc(/C=C/c2ccc([N+](=O)[O-])cc2)nc2ccc(F)cc12 [Compound 17] | 30.9 ± 5.9 |  |
| Cc1cc(NCCN(C)C)c2cc(Cl)ccc2n1 [Compound 6c] | 732 ± 107 | EC50 (Dd2 strain): inactive |
| CN(C)CCNc1cc(/C=C/c2cncnc2)nc2ccc(Cl)cc12 [Compound 53] |  | EC50 (Dd2 strain, read-out: EC50): 155 ± 11.6 nM |
| CN(C)CCNc1cc(/C=C/c2ccccn2)nc2ccc(Cl)cc12 [Compound 51] | 67.5 ± 1.9 |  |
| Clc1ccc2nc(/C=C/c3ccccc3)cc(NCCN3CCCC3)c2c1 [Compound 84] | 107 ± 8.4 |  |
| FC(F)(F)c1cc(/C=C/c2cc(NCCCCN3CCOCC3)c3cc(Cl)ccc3n2)cc(C(F)(F)F)c1 [Compound 102] | 108 ± 8 |  |
| CN(C)CCNc1cc(/C=C/c2nccs2)nc2ccc(Cl)cc12 [Compound 49] | 240 ± 30.6 |  |
| CN1CCN(CCCCNc2cc(/C=C/c3ccccc3)nc3ccc(Cl)cc23)CC1 [Compound 94] | 58.9 ± 8.8 |  |
| CN(C)CCNc1cc(/C=C/c2ccccc2)nc2ccc(Cl)cc12 [Compound 22] | 22.4 ± 2 |  |
| COc1ccc2nc(/C=C/c3ccc(F)cc3)cc(NCCN(C)C)c2c1 [Compound 15] | 32.9 ± 5.1 |  |
| FC(F)(F)c1ccccc1/C=C/c1cc(NCCCCN2CCOCC2)c2cc(Cl)ccc2n1 [Compound 99] |  | EC50 (Dd2 strain, read-out: EC50): 104 ± 7.2 nM |
| CN1CCN(CCCCNc2cc(/C=C/c3ccc(F)cc3)nc3ccc(Cl)cc23)CC1 [Compound 95] | 43 ± 7.5 |  |

| SMILES | EC50 [1] [nM] | further results |
| --- | --- | --- |
| COc1ccc2nc(/C=C/c3cc(OC)c(OC)c(OC)c3)cc(NCCN(C)C)c2c1 [Compound 14] | 74.2 ± 8.8 |  |
| COc1ccc2nc(C)cc(NCCN(C)C)c2c1 [Compound 6a] | 5520 ± 571 | EC50 (Dd2 strain): inactive |
| COc1ccc2nc(/C=C/c3ccncc3)cc(NCCN(C)C)c2c1 [Compound 41] |  | EC50 (Dd2 strain, read-out: EC50): 33.6 nM and 38.8 nM |
| Fc1ccc(/C=C/c2cc(N3CCC(N4CCCCC4)CC3)c3cc(Cl)ccc3n2)cc1 [Compound 71] | 487 ± 69.5 |  |
| CN(C)CCNc1cc(CCc2ccncc2)nc2ccc(Cl)cc12 [Compound 59] |  | EC50 (Dd2 strain, read-out: EC50): 259 ± 15.5 nM |
| FC(F)(F)c1ccc(/C=C/c2cc(NCCCN3CCOCC3)c3cc(Cl)ccc3n2)cc1 [Compound 91] | 84.8 ± 6.3 |  |
| Fc1cccnc1/C=C/c1cc(NCCCCN2CCOCC2)c2cc(Cl)ccc2n1 [Compound 112] |  | EC50 (Dd2 strain, read-out: EC50): 197 ± 16.5 nM |
| COc1ccc2nc(/C=C/c3ccccc3)cc(NCCN(C)C)c2c1 [Compound 8] |  | EC50 (Dd2 strain, read-out: EC50): 41.2 ± 5.3 nM |
| Fc1cc(F)c(/C=C/c2cc(NCCCCN3CCOCC3)c3cc(Cl)ccc3n2)cc1F [Compound 107] | 197 ± 39.7 |  |
| COc1ccc2nc(/C=C/c3ccc(OC)c(OC)c3)cc(NCCN(C)C)c2c1 [Compound 13] | 187 ± 13.6 |  |
| CN(C)CCNc1cc(/C=C/c2ccccc2)nc2ccccc12 [Compound 32] |  | EC50 (Dd2 strain, read-out: EC50): 80.7 ± 22.4 nM |
| COc1ccc2nc(/C=C/c3ccccc3[N+](=O)[O-])cc(NCCN(C)C)c2c1 [Compound 10] |  | EC50 (Dd2 strain, read-out: EC50): 56.3 ± 8.1 nM |
| CN(C)CCNc1cc(/C=C/C2CCCCC2)nc2ccc(Cl)cc12 [Compound 57] | 394 ± 40 |  |
| CN(C)CCNc1cc(/C=C/c2ccncc2)nc2ccc(F)cc12 [Compound 46] | 36.1 ± 2.1 |  |
| COc1ccc(/C=C/c2cc(NCCN(C)C)c3cc(Cl)ccc3n2)cc1 [Compound 25] | 34.8 ± 7.9 |  |
| COc1ccc2nc(/C=C/c3cccs3)cc(NCCN(C)C)c2c1 [Compound 40] | 80 ± 7 |  |
| COc1ccc2nc(/C=C/c3cccnc3)cc(NCCN(C)C)c2c1 [Compound 43] | 71 ± 27.5 |  |
| COc1ccc(/C=C/c2cc(NCCN(C)C)c3cc(F)ccc3n2)cc1OC [Compound 20] | 41.1 ± 0.6 |  |
| Clc1ccc2nc(/C=C/C=C/c3ccccc3)cc(NCCCCN3CCOCC3)c2c1 [Compound 114] | 143 ± 18.6 |  |
| Fc1ccc(/C=C/C=C/c2cc(NCCCCN3CCOCC3)c3cc(Cl)ccc3n2)cc1 [Compound 113] | 96.5 ± 24.4 |  |
| CN(C)CCNc1cc(/C=C/c2ccccc2)nc2ccc(F)cc12 [Compound 16] |  | EC50 (Dd2 strain, read-out: EC50): 21 ± 2.1 nM |

| SMILES | EC50 [1] [nM] | further results |
| --- | --- | --- |
| Clc1ccc2nc(/C=C/c3ccncc3)cc(NCCN3CCCC3)c2c1 [Compound 85] | 67.7 ± 11.6 |  |
| COc1ccc2nc(/C=C/c3ccccn3)cc(NCCN(C)C)c2c1 [Compound 42] |  | EC50 (Dd2 strain, read-out: EC50): 1030 ± 233 nM |
| Fc1ccc(/C=C/c2cc(NCCN3CCCC3)c3cc(Cl)ccc3n2)cc1 [Compound 83] | 92.3 ± 5.8 |  |
| Clc1ccc2nc(/C=C/c3ccncc3)cc(N3CCCC3)c2c1 [Compound 66] | 1180 ± 175 |  |
| Fc1ccc(/C=C/c2cc(NCCCCN3CCOCC3)c3cc(Cl)ccc3n2)cn1 [Compound 110] | 54.6 ± 16.5 | IC50 (Dd2 strain): 54.6 ± 16.5 nM |
| Fc1ccc(/C=C/c2cc(N3CCN(c4ccccn4)CC3)c3cc(Cl)ccc3n2)cc1 [Compound 67] | 3300 ± 60 |  |
| CN(C)CCNc1cc(/C=C/c2cc3ccccc3[nH]2)nc2ccc(Cl)cc12 [Compound 54] |  | EC50 (Dd2 strain, read-out: EC50): 95.9 ± 6.7 nM |
| CN(C)CCNc1cc(/C=C/c2ccc(N(C)C)cc2)nc2ccc(Cl)cc12 [Compound 28] | 88.3 ± 2.2 |  |
| Fc1ccc(/C=C/c2cc(N3CCOCC3)c3cc(Cl)ccc3n2)cc1 [Compound 62] | 6750 ± 1080 |  |
| CN(C)CCNc1cc(/C=C/c2ccc(F)cc2)nc2ccc(F)cc12 [Compound 18] | 30.9 ± 5.5 |  |
| COc1ccc2nc(/C=C/c3cccc([N+](=O)[O-])c3)cc(NCCN(C)C)c2c1 [Compound 11] |  | EC50 (Dd2 strain, read-out: EC50): 49.5 ± 4 nM |
| CN(C)CCNc1cc(/C=C/c2cccs2)nc2ccc(F)cc12 [Compound 45] | 111 ± 29.1 |  |
| CN(C)CCCCNc1cc(/C=C/c2ccc(F)cc2)nc2ccc(Cl)cc12 [Compound 37] | 51.2 ± 1.6 |  |
| CN(C)CCNc1cc(/C=C/c2ccco2)nc2ccc(Cl)cc12 [Compound 47] |  | EC50 (Dd2 strain, read-out: EC50): 37 ± 4.3 nM |
| COc1ccc2nc(CCc3ccncc3)cc(NCCN(C)C)c2c1 [Compound 58] |  | EC50 (Dd2 strain, read-out: EC50): 709 ± 58.2 nM |
| CN(C)CCNc1cc(/C=C/c2cccc3ccccc23)nc2ccc(Cl)cc12 [Compound 56] | 373 ± 19 |  |
| Clc1ccc2nc(-c3ccncc3)cc(NCCCCN3CCOCC3)c2c1 [Compound 120] | 796 ± 161 |  |
| COc1cc(/C=C/c2cc(NCCN(C)C)c3cc(F)ccc3n2)cc(OC)c1OC [Compound 21] |  | EC50 (Dd2 strain, read-out: EC50): 38.6 ± 1.8 nM |
| FC(F)(F)Oc1ccc(/C=C/c2cc(NCCCCN3CCOCC3)c3cc(Cl)ccc3n2)cc1 [Compound 101] | 56.6 ± 7.6 |  |
| Fc1ccc(/C=C/c2cc(NCCCCN3CCOCC3)c3cc(Cl)ccc3n2)c(F)c1 [Compound 104] | 72.6 ± 17.2 |  |
| N#Cc1ccc(/C=C/c2cc(N3CCOCC3)c3cc(Cl)ccc3n2)cc1 [Compound 64] | 1010 ± 84.2 | EC50 (Dd2 strain, read-out: EC50): > 1000 nM |
